Reference: patent EP2662079A1 (Ordway Research Institute, Inc., priority 2012, dated 2013)
“And” between values parts separate entries of the source, which are not always exact repeats. Identical values can stand only once.

How the values were obtained:
[1] = test system: GL261 murine brain tumor cells; test: Clonogenic survival after single doses of 250 kVp x-rays; format: cell-based; details: for α (Gy^-1) / β (Gy^-2): LQ; for SF2: survival at 2 Gy
Procedure: To irradiate 25 cm^2 flasks, an x-ray machine was used and (Philips 250 kVp Therapeutic X-ray Machine, Einhoven, Germany) operated at 250 kVp and 15 mA with added filtration of 0.4 mm Thoreaus filter. The target to source distance was approximately 30 cm. Dose rates were measured using an R-meter (Victoreen R-meter, Cleveland, OH), and converted to absorbed (Gy) doses using appropriate temperature, pressure, and R to Gy conversion factors. The dose rate was 1 Gy per min. Flasks were irradiated at ambient temperature.
Experimental cells and FCs were added to treatment flasks before irradiation, and were then allowed to attach to the surfaces of the flask and incubated at 37°C for 1 hour. After incubation the flasks were irradiated using the 250 kVp x-ray source.
For […] analyses, survival data lying at or below 36.8% survival were analyzed by using the log fractional survival (log FxS) versus dose (D). Data were fit using linear regression analysis (SigmaPlot, V. 10, Systat Corp., Point Richmond, CA) to obtain the Y-intercept (or n, the extrapolation number) and the slope (1/D0), and their 95% confidence limits. (See Goldstein, A. In: Biostatistics, New York, The MacMillan Co., 1964, p. 140-146).. The Do value (Gy) is defined as the inverse of the slope, and the corrected Dq value (Gy) was then defined using the relationship: Dq(Gy) = ln n x D0 (Gy) [formula] The 95% confidence limits on Dq were defined using error propagation. (See Chase, et al., In: Principles of Radioisotope Methodology. Minneapolis, MN. Burgess Publ. Co., 1962, p. 68, 87-90).
For LQ analyses, data lying between a fractional survival of 1.00 and 0.05 were used. The fractional survival data at each dose were transformed using the relationship (-In FxS/D) and plotted against dose (D). A regression analysis was performed to yield the LQ equation along with their 95% confidence limit values using a t-table with the appropriate (N-1) degrees of freedom. (See Goldstein, A. In: Biostatistics, New York, The MacMillan Co., 1964, p. 140-146).
To determine the Tetrac modification factor (TMF), the survival at 2 Gy obtained for control cells was divided by the survival at 2 Gy for Tetrac treated cells. The 95% confidence limits on the ratio were determined using error propagation techniques. (See Chase, et al. In: Princiiples of Radioisotope Methodology, Minneapolis, MN, Burgress Publ. Co., 1962, p. 68, 87-90).

[2] = test system: Human medullary carcinoma cells (TT); format: in vivo
Text: Cells and cell culture. […] Tetrac versus Tetrac NP distribution in h-MTC. […] Penicillin streptomycin (1%) was present in both culture media. […] Cell implantation in nude mice. […] Water and food were provided ad libitum.
Treatment of animals with unmodified or nanoparticulate Tetrac. […] Estimation of tumor response to Tetrac or nanoparticulate Tetrac. […] Statistical analysis for CAM and xenograft studies. […] Statistical significance was defined as P <0.05. RNA microarray analysis.

[3] = test system: MDA-MB-231 cells; test: Cell proliferation in perfusion bellows cell culture system; format: cell-based; details: Homo sapiens, 10^-6 M (Tetrac equivalent), added at day 0, by day 9
Procedure: Tetrac and nanoparticulate Tetrac. Tetrac was custom-synthesized by Peptido GMBH (Bembach, Germany). The proprietary Tetrac nanoparticle was custom-synthesized by covalently-bonding of the outer ring hydroxyl of Tetrac to PLGA via an intervening linker. […] Cell culture for definition of effects of Tetrac formulations on tumor cell proliferation. MDA-MB-231 cells were purchased from ATCC (Manassas, VA). Cells were maintained until use in DMEM that contained 10% FBS. The incubator conditions were 5% CO2/95% 02 and 37° C. The action of unmodified Tetrac and nanoparticulate on MDA-MB-231 cells was determined in a perfusion bellows cell culture system we have recently described for quantitating pharmaceutical agent pharmacodynamics in vitro. (See Lin et al., J Steroid Biochem Mol Biol 113: 182-188 (2009)). In brief, the cell culture system is a disposable bioreactor capable of high density cell culture for studies of anti-cancer drugs. Bellows-induced alternate flow of culture medium and air through porous matrices where cells are grown provides a relatively low shear, high aeration, foam-free culture environment. Medium level is raised and lowered to submerge and expose matrices to create a dynamic interface between air and media on the cell surface. […] Flakes thereafter were sampled at regular intervals (Figure 44), subjected to trypsinization and the harvested cells counted. […]

[4] = Exponential Phase (with Tetrac)
[5] = Unfed plateau Phase (with Tetrac)
[6] = SHMT, Unfed plateau Phase (with Tetrac)

SMILES: O=C(O)Cc1cc(I)c(Oc2cc(I)c(O)c(I)c2)c(I)c1 [Tetrac, 3,3',5,5'-tetraiodothyroacetic acid]
- α (Gy^-1) [1, 4]: 0.930 Gy^-1
- β (Gy^-2) [1, 4]: 0.003 Gy^-2
- α (Gy^-1) [1, 5]: 1.157 Gy^-1
- β (Gy^-2) [1, 5]: 0.066 Gy^-2
- D0 (Gy) ([1]; SHMT, Exponential phase (with Tetrac)): 1.08 Gy and 1.08 (0.09). Gy
- D0 (Gy) [1, 6]: 0.75 Gy
- Dq (Gy) [1, 6]: 0.00 Gy
- sensitization of oxic and hypoxic cells ([1]; Tetrac 2µM, graded doses of 250 kVp x-rays (Figure 60)): sensitize both oxic and hypoxic cells equally
- survival at 2 Gy ([1]; Tetrac treated cells (non-Tetrac treated 32%)): 13%
- increase of the Do value ([1]; exponentially growing cells): 15%
- reduction of the Dq value ([1]; exponentially growing cells): 100%
- reduction of the extrapolation number ([1]; exponentially growing cells): 93%
- reduction of n ([1]; plateau phase cells): 93%
- reduction of the Do ([1]; plateau phase cells): 6%
- reduction of the Dq ([1]; plateau phase cells): 100%
- SF2 [1, 4]: 14.2%
- SF2 [1, 5]: 7.62 (6.82 - 8.51) %
- reduction of tumor mass compared to controls ([2]; Tetrac 10 mg/kg i.p., nanoparticulate Tetrac 1 mg/kg i.p., end of study): 65-80%
- decrease of tumor tissue hemoglobin content ([2]; Tetrac 10 mg/kg or Tetrac NP 1 mg/kg i.p. daily for 3 weeks): 66%
- reduction in tumor-associated neovascularization (hemoglobin levels in tumor tissue) ([2]; Tetrac 10 mg/kg or Tetrac NP 1 mg/kg i.p. daily for 21 days): 70-80%
- tumor size ([2]; Tetrac 10 mg/kg or Tetrac NP 1 mg/kg i.p. daily, over 21 days): < 100 mm^3
- time to detected reduction in tumor size ([2]; after initiation of treatment): ≤ 2 days
- inhibition at 1 µM [3]: > 30%
